A short description of series [1]: Refractive index measurement of polymerizable monomer (Kalnew precision refractometer). Particulars: for Refractive Index: 23° C., helium lamp d-line (587.6 nm), calculated for 100% by mass from calibration curve of 10 and 20% by mass test solutions; for Refractive Index (dash symbol): sample not suitable for refractive index measurement. Type of series: physicochemical. Also on record: key to Refractive Index (dash symbol): ⊚: 0.019 or more; ◯: 0.015 or more and less than 0.019; Δ: 0.010 or more and less than 0.015; x: less than 0.010; —: impossible to measure. The method, then: The refractive index of the compound M-1 was measured using the following method. The refractive indexes of the polymerizable monomers produced in the Examples and Comparative Examples were also measured using the same method.
A test solution was prepared by dissolving the sample in a mixed solution of 3-phenoxybenzyl acrylate and trimethylolpropane trimethacrylate in a mass ratio of 4:1 to obtain the specified concentration.
Two types of test solutions were prepared, with sample concentrations of 10% by mass and 20% by mass.
The refractive index of each test solution was measured using a Kalnew precision refractometer (manufactured by Shimadzu Corporation, product name: KPR-2000). The temperature of the test solution was 23° C., and the measurement wavelength was helium lamp d-line (587.6 nm). Based on the measurement results, a calibration curve showing the correlation between sample concentration and refractive index was created, and the refractive index when the sample concentration was 100% by mass was calculated from the obtained calibration curve, and was taken as the refractive index of the sample.

A short description of series [2]: Solubility in Duranate TSS-100, visual observation. Type of series: physicochemical. Particulars: 0.63 g monomer dissolved in 2.53 g Duranate TSS-100, visually observed. The method, then:
(§1) When 0.63 g of polymerizable monomers M-1 to M-11 and R-1 to R-4 were dissolved in 2.53 g of Duranate (registered trademark) TSS-100, the state of the solution was visually observed and the solubility was evaluated as ∘ (completely dissolved), Δ (cloudy), or x (solid remaining in solution). In addition, the state of each solution was visually observed when it was stored at room temperature for 10 days and the storage stability was evaluated as ∘ (completely dissolved), Δ (cloudy), or x (solid remaining in solution).

Series [3] can be described thus: Storage stability of the TSS-100 solution, visual observation. It counts as physicochemical. On the set-up: key: ∘: completely dissolved; Δ: cloudy; x: solid remaining in solution. As to conditions: solution in Duranate TSS-100 stored at room temperature for 10 days, visually observed. The method, then:
as §1

For series [4] the following is noted: prior-art compounds, background art; cited from earlier work.

Like-named read-outs stand apart in the source and are kept apart here.

For `C=CC(=O)OCCNC(=O)Oc1c(-c2cccc3c2sc2ccccc23)cc(-c2cccc3c2sc2ccccc23)cc1-c1cccc2c1sc1ccccc12` [Compound M-3], the “Refractive Index” value in series [1] is reported as 1.6891. Also, in series [2], the Solubility result is recorded as “◯”. For the same molecule, the “Storage Stability” value in series [3] is listed as “◯”.

`C=C(C)C(=O)OCCNC(=O)Oc1c(-c2ccc3ccccc3c2)cc(-c2ccc3ccccc3c2)cc1-c1ccc2ccccc2c1` [Compound M-5]: the “Refractive Index” value in series [1] was 1.6798. Also, the Solubility entry in series [2] was “◯”. The “Storage Stability” value in series [3] is recorded as “◯”.

Take `C=CC(=O)OCCOc1c(-c2cc3ccccc3c3ccccc23)cc(-c2cc3ccccc3c3ccccc23)cc1-c1cc2ccccc2c2ccccc12` [Compound M-10]: the “Refractive Index” value in series [1] was 1.7323. Also, the Solubility entry in series [2] is listed as “◯”. Moreover, the “Storage Stability” value in series [3] is listed as “◯”.

Consider `C=CC(=O)OCCNC(=O)Oc1ccc(-c2cccc3c2sc2ccccc23)cc1-c1cccc2c1sc1ccccc12` [Compound R-1, reference compound], for which the “Refractive Index” value in series [1] was 1.6762. Further, in series [3], the “Storage Stability” value was “Δ”.

On to `C=C(C)C(=O)OCCNC(=O)Oc1c(-c2cc3ccccc3c3ccccc23)cc(-c2cc3ccccc3c3ccccc23)cc1-c1cc2ccccc2c2ccccc12` [Compound M-2], for which the “Refractive Index” value in series [1] is listed as 1.6898. In addition, the Solubility result in series [2] was “◯”. Moreover, the “Storage Stability” value in series [3] was “◯”.

For `C=CC(=O)OCCOc1ccc(C2(c3ccc(OCCOC(=O)C=C)cc3)c3ccccc3-c3ccccc32)cc1` [9,9-bis[4-(2-acryloyloxyethoxy)phenyl]fluorene], the Refractive Index entry in series [4] is “about 1.62”.

As for `C=CC(=O)OCCOc1c(-c2cccc3c2sc2ccccc23)cc(-c2cccc3c2sc2ccccc23)cc1-c1cccc2c1sc1ccccc12` [Compound R-3, reference compound], the “Refractive Index (dash symbol)” value in series [1] was “—”.

Consider `C=CC(=O)OCCCCOc1c(-c2cccc3c2sc2ccccc23)cc(-c2cccc3c2sc2ccccc23)cc1-c1cccc2c1sc1ccccc12` [Compound R-4, reference compound], for which the “Refractive Index (dash symbol)” value in series [1] is recorded as “—”.

For `C=C(C)C(=O)OCCOCCNC(=O)OCCOc1c(-c2cc3ccccc3c3ccccc23)cc(-c2cc3ccccc3c3ccccc23)cc1-c1cc2ccccc2c2ccccc12` [Compound M-9], in series [1], the “Refractive Index” value is 1.6975. Moreover, the Solubility entry in series [2] was “◯”. The “Storage Stability” value in series [3] was “◯”.

As to `C=C(C)C(=O)OCCNC(=O)Oc1c(-c2cccc3c2sc2ccccc23)cc(-c2cccc3c2sc2ccccc23)cc1-c1cccc2c1sc1ccccc12` [Compound M-1], the “Refractive Index” value in series [1] was 1.6818. Also, the Solubility result in series [2] is given as “◯”. Moreover, the “Storage Stability” value in series [3] was “◯”.

`C=CC(=O)Oc1c(-c2cccc3c2sc2ccccc23)cc(-c2cccc3c2sc2ccccc23)cc1-c1cccc2c1sc1ccccc12` [Compound R-2, reference compound]: in series [1], the “Refractive Index” value is 1.7056. In series [3], the “Storage Stability” value is listed as “Δ”.

Turning to `C=C(C)C(=O)OCCNC(=O)OCCOc1c(-c2cc3ccccc3c3ccccc23)cc(-c2cc3ccccc3c3ccccc23)cc1-c1cc2ccccc2c2ccccc12` [Compound M-8], in series [1], the “Refractive Index” value is on record as 1.7042. Also, in series [2], the Solubility entry is listed as “◯”. The “Storage Stability” value in series [3] is “◯”.

`C=CC(=O)OCCNC(=O)OCCOc1c(-c2cc3ccccc3c3ccccc23)cc(-c2cc3ccccc3c3ccccc23)cc1-c1cc2ccccc2c2ccccc12` [Compound M-7]: the “Refractive Index” value in series [1] is given as 1.7104. For the same molecule, the Solubility entry in series [2] is on record as “◯”. Moreover, the “Storage Stability” value in series [3] is “◯”.

With `C=C(C)C(=O)OCCOCCNC(=O)Oc1c(-c2cc3ccccc3c3ccccc23)cc(-c2cc3ccccc3c3ccccc23)cc1-c1cc2ccccc2c2ccccc12` [Compound M-6], in series [1], the “Refractive Index” value is on record as 1.7013. Besides, the Solubility result in series [2] is “◯”. In addition, in series [3], the “Storage Stability” value is reported as “◯”.

Turning to `C=CC(=O)OCCNC(=O)Oc1c(-c2cc3ccccc3c3ccccc23)cc(-c2cc3ccccc3c3ccccc23)cc1-c1cc2ccccc2c2ccccc12` [Compound M-4], the “Refractive Index” value in series [1] is 1.6894. Moreover, in series [2], the Solubility entry is listed as “◯”. For the same molecule, in series [3], the “Storage Stability” value is reported as “◯”.

Regarding `C=CC(=O)OCCCOc1c(-c2cc3ccccc3c3ccccc23)cc(-c2cc3ccccc3c3ccccc23)cc1-c1cc2ccccc2c2ccccc12` [Compound M-11], the “Refractive Index” value in series [1] is listed as 1.7316. In addition, the Solubility entry in series [2] was “◯”. Besides, the “Storage Stability” value in series [3] is “◯”.

Values taken from patent US20260159618A1, “COMPOUND, POLYMERIZABLE COMPOSITION, POLYMER, HOLOGRAPHIC RECORDING MEDIUM, OPTICAL MATERIAL, AND OPTICAL COMPONENT” (Mitsubishi Chemical Corporation, priority 2022, published 2026).
